The structures appear in SMILES notation.

In the experiment the target is T1, PARP1 (Homo sapiens, UniProt P09874).
T1 construct: purchased BPS Bioscience
The experiment can be described thus: PARP1 Biochemical Assay (BPS Bioscience kit, chemiluminescence). To be noted: histone-coated plate, biotinilated NAD+, 25° C. for 60 min, luminescence, read-out: PARP 1 inhibition IC50. In outline: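 Human PARP1 (25–75 ng/well) with activated DNA was incubated with compound on histone-coated wells. Biotinylated NAD+ was added and the reaction ran 60 min at 25 °C. Ribosylation was detected by streptavidin-HRP chemiluminescence, % inhibition was normalised to enzyme-free and uninhibited controls, and IC50 was fitted from % inhibition versus concentration.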

T1 sequence (P09874 whole entry): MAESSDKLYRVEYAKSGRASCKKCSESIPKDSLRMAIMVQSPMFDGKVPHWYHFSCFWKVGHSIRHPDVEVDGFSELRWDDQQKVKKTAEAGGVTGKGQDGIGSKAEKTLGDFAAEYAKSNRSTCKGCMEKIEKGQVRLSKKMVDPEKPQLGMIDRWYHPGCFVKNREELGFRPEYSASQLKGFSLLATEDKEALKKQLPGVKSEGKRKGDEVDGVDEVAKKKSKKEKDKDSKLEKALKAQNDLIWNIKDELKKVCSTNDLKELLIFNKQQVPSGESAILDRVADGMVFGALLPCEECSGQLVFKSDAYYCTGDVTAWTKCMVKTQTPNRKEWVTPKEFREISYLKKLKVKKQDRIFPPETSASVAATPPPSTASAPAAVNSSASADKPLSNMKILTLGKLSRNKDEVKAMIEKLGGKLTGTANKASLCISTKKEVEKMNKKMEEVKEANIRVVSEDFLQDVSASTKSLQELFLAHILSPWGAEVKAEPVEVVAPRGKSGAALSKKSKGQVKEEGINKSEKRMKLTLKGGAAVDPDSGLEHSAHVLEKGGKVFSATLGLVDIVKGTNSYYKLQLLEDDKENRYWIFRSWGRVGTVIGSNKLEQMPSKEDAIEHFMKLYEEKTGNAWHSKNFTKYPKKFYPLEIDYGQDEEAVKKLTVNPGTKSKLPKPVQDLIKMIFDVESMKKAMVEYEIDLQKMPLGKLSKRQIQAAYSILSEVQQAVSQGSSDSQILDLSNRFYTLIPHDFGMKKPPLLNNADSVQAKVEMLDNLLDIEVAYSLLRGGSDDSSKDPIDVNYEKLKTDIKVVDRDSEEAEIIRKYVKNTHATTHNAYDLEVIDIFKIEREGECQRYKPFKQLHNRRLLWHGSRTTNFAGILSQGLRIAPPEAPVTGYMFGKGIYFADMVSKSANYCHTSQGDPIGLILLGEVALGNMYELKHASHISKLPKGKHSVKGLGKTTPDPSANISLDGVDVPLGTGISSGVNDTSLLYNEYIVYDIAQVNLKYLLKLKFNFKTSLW

Take `O=c1[nH]c(CCCN2CCN(c3cccc(Cl)c3)CC2)nc2c1CC1(CC2)CC1` [Compound 18, 2′-(3-(4-(3-chlorophenyl)piperazin-1-yl)propyl)-7′,8′-dihydro-3′H-spiro[cyclopropane-1,6′-quinazolin]-4′(5′H)-one]: the IC50 lay in the range of 5000 to 500000 nM.
As for `Cc1ccc(C2CCN([C@H]3C=C(c4nc5c(c(=O)[nH]4)CC4(CC5)CC4)CC3)CC2)cc1` [Compound 77, (R)-2′-(3-(4-(p-tolyl)piperidin-1-yl)cyclopent-1-en-1-yl)-7′,8′-dihydro-3′H-spiro[cyclopropane-1,6′-quinazolin]-4′(5′H)-one], the IC50 lay in the range of 1 to 500 nM.
Consider `O=c1[nH]c(CCCN2CCN(c3ccc(F)cc3)CC2)nc2c1CCC1(CC1)C2` [Compound 15, 2′-(3-(4-(4-fluorophenyl)piperazin-1-yl)propyl)-5′,6′-dihydro-3′H-spiro[cyclopropane-1,7′-quinazolin]-4′(8′H)-one], for which the IC50 was 5000 to 500000 nM.
In the case of `O=c1[nH]c(C2=C[C@H](N3CCN(c4cc(Cl)ccc4F)CC3)CC2)nc2c1CC1(CC2)CC1` [Compound 138, (R)-2′-(3-(4-(5-chloro-2-fluorophenyl)piperazin-1-yl)cyclopent-1-en-1-yl)-7′,8′-dihydro-3′H-spiro[cyclopropane-1,6′-quinazolin]-4′(5′H)-one] it was 501 to 5000 nM; in that of `Cc1c(Cl)cccc1N1CCN([C@H]2C=C(c3nc4c(c(=O)[nH]3)CC3(CC4)CC3)CC2)CC1` [Compound 143, (R)-2′-(3-(4-(3-chloro-2-methylphenyl)piperazin-1-yl)cyclopent-1-en-1-yl)-7′,8′-dihydro-3′H-spiro[cyclopropane-1,6′-quinazolin]-4′(5′H)-one], 1 to 500 nM.
For the molecule `O=c1[nH]c([C@@H]2CC[C@H](N3CCN(c4cccc(F)c4)CC3)C2)nc2c1CC1(CC2)CC1` [Compound 153, 2′-((1R,3S)-3-(4-(3-fluorophenyl)piperazin-1-yl)cyclopentyl)-7′,8′-dihydro-3′H-spiro[cyclopropane-1,6′-quinazolin]-4′(5′H)-one], the IC50 was 5000 to 500000 nM.
In the case of `O=c1[nH]c(C2=C[C@H](N3CCN(c4ccc(F)cn4)CC3)CC2)nc2c1CC1(CC2)CC1` [Compound 58, (R)-2′-(3-(4-(5-fluoropyridin-2-yl)piperazin-1-yl)cyclopent-1-en-1-yl)-7′,8′-dihydro-3′H-spiro[cyclopropane-1,6′-quinazolin]-4′(5′H)-one] it was 1 to 500 nM.
As for `CNC(=O)c1ccc(N2CCN([C@H]3C=C(c4nc5c(c(=O)[nH]4)CC4(CC5)CC4)CC3)CC2)cc1C` [Compound 98, (R)—N, 2-dimethyl-4-(4-(3-(4′-oxo-4′,5′,7′,8′-tetrahydro-3′H-spiro[cyclopropane-1,6′-quinazolin]-2′-yl)cyclopent-2-en-1-yl)piperazin-1-yl)benzamide], the figure is 1 to 500 nM.
Turning to `Cc1csc(N2CCN([C@H]3C=C(c4nc5c(c(=O)[nH]4)CC4(CC5)CC4)CC3)CC2)n1` [Compound 102, (R)-2′-(3-(4-(4-methylthiazol-2-yl)piperazin-1-yl)cyclopent-1-en-1-yl)-7′,8′-dihydro-3′H-spiro[cyclopropane-1,6′-quinazolin]-4′(5′H)-one], the IC50 was 501 to 5000 nM.
Take `O=c1[nH]c(CCCN2CC=C(c3ccccc3)CC2)nc2c1CCC1(CC1)C2` [Compound 17, 2′-(3-(4-phenyl-5,6-dihydropyridin-1(2H)-yl)propyl)-5′,6′-dihydro-3′H-spiro[cyclopropane-1,7′-quinazolin]-4′(8′H)-one]: the IC50 was in the range of 5000 to 500000 nM.
In the case of `O=c1[nH]c(C2=C[C@H](N3CCC(c4ccc(F)cc4)CC3)CC2)nc2c1CC1(CC2)CC1` [Compound 75, (R)-2′-(3-(4-(4-fluorophenyl)piperidin-1-yl)cyclopent-1-en-1-yl)-7′,8′-dihydro-3′H-spiro[cyclopropane-1,6′-quinazolin]-4′(5′H)-one] it was 1 to 500 nM; in that of `Cc1ccnc(N2CCN([C@H]3C=C(c4nc5c(c(=O)[nH]4)CC4(CC5)CC4)CC3)CC2)c1` [Compound 125, (R)-2′-(3-(4-(4-methylpyridin-2-yl)piperazin-1-yl)cyclopent-1-en-1-yl)-7′,8′-dihydro-3′H-spiro[cyclopropane-1,6′-quinazolin]-4′(5′H)-one], 1 to 500 nM.
As for `O=c1[nH]c([C@H]2CC[C@@H](N3CCN(c4ccc(Cl)cc4)CC3)C2)nc2c1CC1(CC2)CC1` [Compound 120, 2′-((1S,3R)-3-(4-(4-chlorophenyl)piperazin-1-yl)cyclopentyl)-7′,8′-dihydro-3′H-spiro[cyclopropane-1,6′-quinazolin]-4′(5′H)-one], the figure is 501 to 5000 nM; as for `O=c1[nH]c(C2=C[C@H](N3CCN(c4ccc(Cl)cc4)CC3)CC2)nc2c1CC1(CC2)CC1` [Compound 37, (R)-2′-(3-(4-(4-chlorophenyl)piperazin-1-yl)cyclopent-1-en-1-yl)-7′,8′-dihydro-3′H-spiro[cyclopropane-1,6′-quinazolin]-4′(5′H)-one], 1 to 500 nM; as for `O=c1[nH]c(CCCN2CCN(c3ccccn3)CC2)nc2c1CC1(CC2)CC1` [Compound 20, 2′-(3-(4-(pyridin-2-yl)piperazin-1-yl)propyl)-7′,8′-dihydro-3′H-spiro[cyclopropane-1,6′-quinazolin]-4′(5′H)-one], 5000 to 500000 nM.
In the case of `O=c1[nH]c(C2=CC(N3CCN(c4ccc(Br)cc4)CC3)CC2)nc2c1CC1(CC2)CC1` (stereo not shown) [Compound 50, 2′-(3-(4-(4-bromophenyl)piperazin-1-yl)cyclopent-1-en-1-yl)-7′,8′-dihydro-3′H-spiro[cyclopropane-1,6′-quinazolin]-4′(5′H)-one] it was 1 to 500 nM; in that of `O=c1[nH]c([C@@H]2CC[C@@H](N3CCN(c4ccc(F)cc4)CC3)C2)nc2c1CC1(CC2)CC1` [Compound 152, 2′-((1R,3R)-3-(4-(4-fluorophenyl)piperazin-1-yl)cyclopentyl)-7′,8′-dihydro-3′H-spiro[cyclopropane-1,6′-quinazolin]-4′(5′H)-one], 501 to 5000 nM; in that of `O=c1[nH]c(C2=C[C@H](N3CCN(c4cccc(Cl)c4F)CC3)CC2)nc2c1CC1(CC2)CC1` [Compound 99, (R)-2′-(3-(4-(3-chloro-2-fluorophenyl)piperazin-1-yl)cyclopent-1-en-1-yl)-7′,8′-dihydro-3′H-spiro[cyclopropane-1,6′-quinazolin]-4′(5′H)-one], 501 to 5000 nM.
For `CNC(=O)c1cccc(N2CCN([C@H]3C=C(c4nc5c(c(=O)[nH]4)CC4(CC5)CC4)CC3)CC2)c1` [Compound 87, (R)—N-methyl-3-(4-(3-(4′-oxo-4′,5′,7′,8′-tetrahydro-3′H-spiro[cyclopropane-1,6′-quinazolin]-2′-yl)cyclopent-2-en-1-yl)piperazin-1-yl)benzamide], the concentration for half-maximal inhibition (IC50) was in the range of 1 to 500 nM.
As for `O=c1[nH]c(C2=C[C@H](N3CCN(c4ccccc4F)CC3)CC2)nc2c1CC1(CC2)CC1` [Compound 116, (R)-2′-(3-(4-(2-fluorophenyl)piperazin-1-yl)cyclopent-1-en-1-yl)-7′,8′-dihydro-3′H-spiro[cyclopropane-1,6′-quinazolin]-4′(5′H)-one], the figure is 1 to 500 nM; as for `COc1cc(F)ccc1N1CCN([C@H]2C=C(c3nc4c(c(=O)[nH]3)CC3(CC4)CC3)CC2)CC1` [Compound 133, (R)-2′-(3-(4-(4-fluoro-2-methoxyphenyl)piperazin-1-yl)cyclopent-1-en-1-yl)-7′,8′-dihydro-3′H-spiro[cyclopropane-1,6′-quinazolin]-4′(5′H)-one], 1 to 500 nM.
As for `Cc1ccc(N2CCN([C@H]3C=C(c4nc5c(c(=O)[nH]4)CC4(CC5)CC4)CC3)CC2)cc1C` [Compound 136, (R)-2′-(3-(4-(3,4-dimethylphenyl)piperazin-1-yl)cyclopent-1-en-1-yl)-7′,8′-dihydro-3′H-spiro[cyclopropane-1,6′-quinazolin]-4′(5′H)-one], the figure is 501 to 5000 nM; as for `O=c1[nH]c(C2=C[C@@H](N3CCC(c4ccc(Cl)cc4)CC3)CC2)nc2c1CC1(CC2)CC1` [Compound 55, (S)-2′-(3-(4-(4-chlorophenyl)piperidin-1-yl)cyclopent-1-en-1-yl)-7′,8′-dihydro-3′H-spiro[cyclopropane-1,6′-quinazolin]-4′(5′H)-one], 501 to 5000 nM.
In the case of `Cc1c(F)cccc1N1CCN([C@H]2C=C(c3nc4c(c(=O)[nH]3)CC3(CC4)CC3)CC2)CC1` [Compound 108, (R)-2′-(3-(4-(3-fluoro-2-methylphenyl)piperazin-1-yl)cyclopent-1-en-1-yl)-7′,8′-dihydro-3′H-spiro[cyclopropane-1,6′-quinazolin]-4′(5′H)-one] it was 1 to 500 nM; in that of `O=c1[nH]c(C2=C[C@@H](N3CCN(c4ccc(Cl)cc4)CC3)CC2)nc2c1CC1(CC2)CC1` [Compound 38, (S)-2′-(3-(4-(4-chlorophenyl)piperazin-1-yl)cyclopent-1-en-1-yl)-7′,8′-dihydro-3′H-spiro[cyclopropane-1,6′-quinazolin]-4′(5′H)-one], 1 to 500 nM; in that of `COc1ccc(N2CCN([C@H]3C=C(c4nc5c(c(=O)[nH]4)CC4(CC5)CC4)CC3)CC2)cc1` [Compound 74, (R)-2′-(3-(4-(4-methoxyphenyl)piperazin-1-yl)cyclopent-1-en-1-yl)-7′,8′-dihydro-3′H-spiro[cyclopropane-1,6′-quinazolin]-4′(5′H)-one], 1 to 500 nM.
`O=c1[nH]c(CCCN2CCN(c3ccccc3)CC2)nc2c1CC1(CC2)CC1` [Compound 13, 2′-(3-(4-phenylpiperazin-1-yl)propyl)-7′,8′-dihydro-3′H-spiro[cyclopropane-1,6′-quinazolin]-4′(5′H)-one]: the IC50 lay in the range of 501 to 5000 nM.
In the case of `O=c1[nH]c(C2=C[C@H](N3CCN(c4cc(F)cc(Cl)c4)CC3)CC2)nc2c1CC1(CC2)CC1` [Compound 115, (R)-2′-(3-(4-(3-chloro-5-fluorophenyl)piperazin-1-yl)cyclopent-1-en-1-yl)-7′,8′-dihydro-3′H-spiro[cyclopropane-1,6′-quinazolin]-4′(5′H)-one], the IC50 was in the range of 501 to 5000 nM.

Source of the values: US9359367B2, “Tetrahydroquinazolinone derivatives as PARP inhibitors” (Lupin Limited, priority 2012, dated 2016).
